Measured values taken from patent US20260356851A1, “TRICYCLIC COMPOUNDS AND USES THEREOF” (HUTCHMED LIMITED, priority 2023, published 2026).

Legend:
Format in all cases: cell-based
[1] = molecular target: T1, pERK1/2 (Thr202/Tyr204), NCI-1H441 (KRAS G12V) (Homo sapiens, UniProt P01116, G12V); experiment: Assay of intracellular pERK1/2 (Thr202/Tyr204) phosphorylation in NCI-H441 cells (KRAS G12V); details: pERK1/2, 2 days, read-out: NCI-H441 (KRAS G12V) IC50
T1 construct: pERK1/2 HTRF read-out
How it was run: (§1)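 HTRF detection of Thr202/Tyr204-phosphorylated ERK1/2 (665/615 nm ratio) in lysates from cells treated 2 days with serially 3-fold diluted compound.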

[2] = molecular target: T2, pERK1/2 (Thr202/Tyr204), NCI-1H358 (KRAS G12C) (Homo sapiens, UniProt P01116, G12C); experiment: Assay of intracellular pERK1/2 (Thr202/Tyr204) phosphorylation in NCI-H358 cells (KRAS G12C); details: pERK1/2, 2 days, read-out: NCI-H358 (KRAS G12C) IC50
T2 construct: pERK1/2 HTRF read-out
How it was run: as §1

[3] = molecular target: T3, pERK1/2 (Thr202/Tyr204), PANC-1 (KRAS G121D) (Homo sapiens, UniProt P01116, G12D); experiment: Assay of intracellular pERK1/2 (Thr202/Tyr204) phosphorylation in PANC-1 cells (KRAS G12D); details: pERK1/2, 2 days, read-out: PANC-1 (KRAS G12D) IC50
T3 construct: pERK1/2 HTRF read-out
How it was run: as §1

T1 sequence (P01116 1-188 isoform P01116-2 G12V): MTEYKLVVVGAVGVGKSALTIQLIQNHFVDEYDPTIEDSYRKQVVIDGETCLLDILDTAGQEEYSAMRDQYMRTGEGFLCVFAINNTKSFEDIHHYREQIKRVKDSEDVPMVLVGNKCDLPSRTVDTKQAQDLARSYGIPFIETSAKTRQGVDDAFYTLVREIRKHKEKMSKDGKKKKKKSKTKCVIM
T2 sequence (P01116 1-188 isoform P01116-2 G12C): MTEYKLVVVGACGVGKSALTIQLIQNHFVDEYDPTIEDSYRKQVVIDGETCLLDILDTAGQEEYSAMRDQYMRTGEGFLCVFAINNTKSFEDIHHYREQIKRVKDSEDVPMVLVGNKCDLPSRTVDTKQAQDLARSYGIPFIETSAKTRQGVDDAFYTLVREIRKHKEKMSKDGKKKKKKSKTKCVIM
T3 sequence (P01116 1-188 isoform P01116-2 G12D): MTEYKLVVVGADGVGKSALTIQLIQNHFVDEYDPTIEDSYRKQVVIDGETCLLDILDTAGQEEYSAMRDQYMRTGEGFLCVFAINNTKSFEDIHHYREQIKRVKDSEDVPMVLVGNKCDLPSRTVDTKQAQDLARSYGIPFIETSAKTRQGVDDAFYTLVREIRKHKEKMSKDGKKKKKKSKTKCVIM

SMILES	IC50 [1] [nM]	IC50 [2] [nM]	IC50 [3] [nM]
CC(c1cccnc1N)N1CCOc2nc(-c3cc(O)cc4ccc(F)c(F)c34)c(F)c3nc(OCC4(CN(C)C)CC4)nc1c23 (stereo not drawn) [Compound 7]	33	8	238
CC(c1cccnc1N)N1CCOc2nc(-c3cc(O)cc4ccc(F)c(F)c34)c(F)c3nc(OC[C@@H]4CCN4CC(F)F)nc1c23 (stereo partly drawn) [Compound 8]	2	1	113
CC(c1cccnc1N)N1CCOc2nc(-c3cc(O)cc4ccc(F)c(F)c34)c(F)c3nc(O)nc1c23 (stereo not drawn) [Compound 9]	> 1000	> 1000	> 1000
CCOc1nc2c3c(nc(-c4cc(O)cc5ccc(F)c(F)c45)c(F)c3n1)OCCN2C(C)c1cccnc1N (stereo not drawn) [Compound 10]	797	152	> 1000
CC(c1cccnc1N)N1CCOc2nc(-c3cc(O)cc4ccc(F)c(F)c34)c(F)c3nc(OC[C@@]45CCCN4C/C(=C\F)C5)nc1c23 (stereo partly drawn) [Compound 11]	1	1	4
CC(c1cccnc1N)N1CCOc2nc(-c3cc(O)cc4ccc(F)c(F)c34)c(F)c3nc(OC[C@H]4COCCN4)nc1c23 (stereo partly drawn) [Compound 12]	192	54	> 1000
CC(c1cccnc1N)N1CCOc2nc(-c3cc(O)cc4ccc(F)c(F)c34)c(F)c3nc(OC[C@@H]4COCCN4)nc1c23 (stereo partly drawn) [Compound 13]	247	137	> 1000
Cc1cc2[nH]ncc2c(-c2nc3c4c(nc(OC[C@@H]5CCN5CC(F)F)nc4c2F)N(C(C)c2cccnc2N)CCO3)c1C (stereo partly drawn) [Compound 14]	36	19	> 1000
CC(c1cccnc1N)N1CCOc2nc(-c3c(C(F)(F)F)ccc4[nH]ncc34)c(F)c3nc(OC[C@@]45CCCN4C[C@H](F)C5)nc1c23 (stereo partly drawn) [Compound 15]	17	2	175
CC(c1cccnc1N)N1CCOc2nc(-c3cc(O)cc(Cl)c3C3CC3)c(F)c3nc(OC[C@@H]4CCN4CC(F)F)nc1c23 (stereo partly drawn) [Compound 16]	5	2	151
CC(c1cccnc1N)N1CCOc2nc(-c3cccc4sc(N)nc34)c(F)c3nc(OC[C@@H]4CCN4CC(F)F)nc1c23 (stereo partly drawn) [Compound 17]	108	29	> 1000
CC(c1cccnc1N)N1CCOc2nc(-c3cc(N)ccc3C(F)(F)F)c(F)c3nc(OC[C@@]45CCCN4C[C@H](F)C5)nc1c23 (stereo partly drawn) [Compound 18]	3	1	54
CC(c1cccnc1N)N1CCOc2nc(-c3ccc(F)c4sc(N)nc34)c(F)c3nc(OC[C@@H]4CCN4CC(F)F)nc1c23 (stereo partly drawn) [Compound 19]	66	15	> 1000
CC(c1cccnc1N)N1CCOc2nc(-c3cc(O)cc4ccc(F)c(F)c34)c(F)c3ncnc1c23 (stereo not drawn) [Compound 22]	105	38	393
CC(c1cccnc1N)N1CCOc2nc(-c3c(C(F)(F)F)ccc4[nH]ncc34)c(F)c3nc(OC[C@@H]4CCN4CC(F)F)nc1c23 (stereo partly drawn) [Compound 25]	14	7	593
CC(c1cccnc1N)N1CCOc2nc(-c3nc(N)cc4ccccc34)c(F)c3nc(OC[C@@H]4CCCN4C)nc1c23 (stereo partly drawn) [Compound 28, 1-(10-(1-(2-aminopyridin-3-yl)ethyl)-4-fluoro-2-(((S)-1-methylpyrrolidin-2-yl)methoxy)-9,10-dihydro-8H-7-oxa-1,3,6,10-tetraazacyclohepta[de]naphthalen-5-yl)isoquinolin-3-amine]	> 1000	448	> 1000
CSc1nc2c3c(nc(-c4cc(O)cc5ccc(F)c(F)c45)c(F)c3n1)OCCN2C(C)c1cccnc1N (stereo not drawn) [Compound 33]	121	193	> 1000
CC(c1cccnc1N)N1CCOc2nc(-c3cc(N)ccc3C(F)(F)F)c(F)c3nc(OC[C@@H]4CCCN4C)nc1c23 (stereo partly drawn) [Compound 36]	25	6	286
CC(c1cccnc1N)N1CCOc2nc(-c3cc(N)ccc3C(F)(F)F)c(F)c3nc(OC[C@@H]4CC(F)(F)CN4C)nc1c23 (stereo partly drawn) [Compound 37]	26	11	851

Next, values leading:

IC50 [1] [nM]	IC50 [2] [nM]	IC50 [3] [nM]	SMILES
31	18	934	CC(c1cccnc1N)N1CCOc2nc(-c3c(C(F)(F)F)ccc4[nH]ncc34)c(F)c3nc(OC[C@@H]4CC(F)(F)CN4C)nc1c23 (stereo partly drawn) [Compound 40]
53	38	> 1000	CC(c1cccnc1N)N1CCOc2nc(-c3cc(O)cc(F)c3C3CC3)c(F)c3nc(OC[C@@H]4CC(F)(F)CN4C)nc1c23 (stereo partly drawn) [Compound 45]
5	4	287	CC(c1cccnc1N)N1CCOc2nc(-c3cc(O)cc4ccc(F)c(F)c34)c(F)c3nc(OC[C@@H]4CC(F)(F)CN4C)nc1c23 (stereo partly drawn) [Compound 46]
> 1000	> 1000	347	COc1ccc(C(F)(F)F)cc1-c1nc2c3c(nc(OC[C@@]45CCCN4C[C@H](F)C5)nc3c1F)N(C(C)c1cccnc1N)CCO2 (stereo partly drawn) [Compound 47]
0.7	0.2	2	Cc1cc(N)cc(-c2nc3c4c(nc(OC[C@@]56CCCN5C[C@H](F)C6)nc4c2F)N(C(C)c2cccnc2N)CCO3)c1C(F)(F)F (stereo partly drawn) [Compound 59]
806	518	> 1000	C#Cc1ccc2[nH]ncc2c1-c1nc2c3c(nc(OC[C@@]45CCCN4C[C@H](F)C5)nc3c1F)N(C(C)c1cccnc1N)CCO2 (stereo partly drawn) [Compound 60]
0.5	0.4	2	CC(c1cccnc1N)N1CCOc2nc(-c3cc(N)cc(Cl)c3C(F)(F)F)c(F)c3nc(OC[C@@]45CCCN4C[C@H](F)C5)nc1c23 (stereo partly drawn) [Compound 63]
2	0.6	23	CC(c1cccnc1N)N1CCOc2nc(-c3cc(N)cc(Cl)c3C(F)(F)F)c(F)c3nc(OC[C@@H]4CCCN4C)nc1c23 (stereo partly drawn) [Compound 64]
2	1	26	Cc1cc(N)cc(-c2nc3c4c(nc(OC[C@@H]5CCCN5C)nc4c2F)N(C(C)c2cccnc2N)CCO3)c1C(F)(F)F (stereo partly drawn) [Compound 65]
0.4	0.2	3	CC(c1cccnc1N)N1CCOc2nc(-c3cc(N)cc(Cl)c3C3CC3)c(F)c3nc(OC[C@@]45CCCN4C[C@H](F)C5)nc1c23 (stereo partly drawn) [Compound 66]
8	5	81	CC(c1cccnc1N)N1CCOc2nc(-c3cc(N)cc(Cl)c3C3CC3)c(F)c3nc(OC[C@@H]4CCCN4C)nc1c23 (stereo partly drawn) [Compound 67]
506	264	> 1000	CC(c1cccnc1N)N1CCOc2nc(-c3cc(N)cc(Cl)c3C3CC3)c(F)c3nc(OCC4(C#N)CC4)nc1c23 (stereo not drawn) [Compound 68]
10	3	95	Cc1cc(N)cc(-c2nc3c4c(nc(OCC5(CN(C)C)CC5)nc4c2F)N(C(C)c2cccnc2N)CCO3)c1C(F)(F)F (stereo not drawn) [Compound 69]
2	2	> 100	Cc1cc(N)cc(-c2nc3c4c(nc(OC[C@@H]5CC(F)(F)CN5C)nc4c2F)N(C(C)c2cccnc2N)CCO3)c1C(F)(F)F (stereo partly drawn) [Compound 70]
